In patent US20240051931A1, “HDAC INHIBITORS” (University of Pittsburgh - Of the Commonwealth System of …, priority 2020, published 2024):

What follows are compounds tested on PanHDAC (assay: PanHDAC activity at fixed concentration (Table 2)). Settings: compound at 1 uM.
Type: biochemical
Set-up: unit not given here

Structure (SMILES) | PanHDAC at 1 uM
O=C(NO)C1CCc2cc(Cl)ccc2O1 (stereo not drawn) [Compound 1-1] | 0
O=C(NO)C1CCc2cccc(NS(=O)(=O)c3ccc(F)cc3)c2O1 (stereo not drawn) [Compound 1-2] | 0
O=C(NO)[C@@H]1CCc2ccccc2O1 [Compound 1-3] | 0
O=C(NO)[C@H]1CCc2ccccc2O1 [Compound 1-4] | 0
COc1ccc(C(=O)Nc2ccc3c(c2)CCC(C(=O)NO)O3)cc1 (stereo not drawn) [Compound 1-5] | 0
O=C(Nc1ccc2c(c1)CCC(C(=O)NO)O2)c1ccc(S(F)(F)(F)(F)F)cc1 (stereo not drawn) [Compound 1-6] | 0
O=C(NO)C1CCc2cc(CCCOc3ccc(F)cc3)ccc2O1 (stereo not drawn) [Compound 1-7] | 0
O=C(Nc1cccc2c1OC(C(=O)NO)CC2)OCc1ccccc1 (stereo not drawn) [Compound 1-8] | 0
O=C(Nc1ccc2c(c1)CCC(C(=O)NO)O2)OCc1ccccc1 (stereo not drawn) [Compound 1-9] | 0
O=C(NO)C1CCc2cc(C#CCOc3ccc(F)cc3)ccc2O1 (stereo not drawn) [Compound 1-10] | 0
C#Cc1ccc2c(c1)CCC(C(=O)NO)O2 (stereo not drawn) [Compound 1-11] | 3
O=C(NCc1ccccc1)Nc1cccc2c1OC(C(=O)NO)CC2 (stereo not drawn) [Compound 1-12] | 0
O=C(Nc1cccc2c1OC(C(=O)NO)CC2)OCc1ccccc1Cl (stereo not drawn) [Compound 1-13] | 0
O=C(NO)C1CCc2cc(NS(=O)(=O)c3cc(Cl)cc(Cl)c3)ccc2O1 (stereo not drawn) [Compound 1-14] | 21
O=C(NCc1ccc(Cl)c(C(F)(F)F)c1)Nc1ccc2c(c1)CCC(C(=O)NO)O2 (stereo not drawn) [Compound 1-15] | 0
O=C(NO)C1CCc2cc(CCCOC(=O)N3CCc4ccccc4C3)ccc2O1 (stereo not drawn) [Compound 1-16] | 0
O=C(NO)C1CCc2ccc(O)cc2O1 (stereo not drawn) [Compound 1-17] | 0
O=C(NO)C1CCc2cc(-c3ccc(F)cc3)ccc2O1 (stereo not drawn) [Compound 1-18] | 0
O=C(NO)C1CCc2cc(C#CCCC(=O)N3CCc4ccccc4C3)ccc2O1 (stereo not drawn) [Compound 1-19] | 0
O=C(NO)C1CCc2ccc(OCc3ccc(C(F)(F)F)cc3)cc2O1 (stereo not drawn) [Compound 1-20] | 0
O=C(NO)C1CCc2cc(-c3ccc(Cl)c(Cl)c3)ccc2O1 (stereo not drawn) [Compound 1-21] | 0
C[C@@H]1Cc2ccccc2O[C@@H]1C(=O)NO [Compound 1-22] | 0
O=C(NO)C1CCc2cc(-c3ccc(-c4ccccc4)cc3)ccc2O1 (stereo not drawn) [Compound 1-23] | 0
O=C(NO)C1CCc2ccc(OCc3ccccn3)cc2O1 (stereo not drawn) [Compound 1-24] | 0

Structure (SMILES) | PanHDAC at 1 uM
O=C(NO)C1CCc2ccc(OCCOc3ccc(F)cc3)cc2O1 (stereo not drawn) [Compound 1-25] | 0
O=C(Nc1ccc2c(c1)CC[C@@H](C(=O)NO)O2)c1cc(Cl)cc(Cl)c1 [Compound 1-26] | 0
CN1CC(C(=O)NO)Oc2ccccc21 (stereo not drawn) [Compound 1-27] | 0
Cn1ccc2cc(-c3ccc4c(c3)CCC(C(=O)NO)O4)ccc21 (stereo not drawn) [Compound 1-28] | 0
CO[C@@H]1C[C@@H](C(=O)NO)Oc2ccccc21 [Compound 1-29] | 0
CC(C)COC(=O)Nc1cccc2c1OC(C(=O)NO)CC2 (stereo not drawn) [Compound 1-30] | 0
O=C(NO)C1CCc2cccc(NS(=O)(=O)CC(F)(F)F)c2O1 (stereo not drawn) [Compound 1-31] | 0
COc1ccc(COC(=O)Nc2ccc3c(c2)CCC(C(=O)NO)O3)cc1 (stereo not drawn) [Compound 1-32] | 14
O=C(Nc1ccc2c(c1)CCC(C(=O)NO)O2)OCc1ccccc1Cl (stereo not drawn) [Compound 1-33] | 0
O=C(Nc1cccc2c1O[C@@H](C(=O)NO)CC2)OCc1ccccc1Cl [Compound 1-34] | 0
O=C(NO)C1CCc2cccc(NS(=O)(=O)c3cccc4ccccc34)c2O1 (stereo not drawn) [Compound 1-35] | 0
O=C(NCCc1c[nH]c2ccccc12)Nc1cccc2c1OC(C(=O)NO)CC2 (stereo not drawn) [Compound 1-36] | 0
CS(=O)(=O)Nc1cccc2c1OC(C(=O)NO)CC2 (stereo not drawn) [Compound 1-37] | 6
Cc1ccc(S(=O)(=O)Nc2cccc3c2OC(C(=O)NO)CC3)cc1 (stereo not drawn) [Compound 1-38] | 0
O=C(NCc1cccc(S(F)(F)(F)(F)F)c1)Nc1cccc2c1OC(C(=O)NO)CC2 (stereo not drawn) [Compound 1-39] | 0
O=C(Nc1ccc(F)cc1)Nc1cccc2c1OC(C(=O)NO)CC2 (stereo not drawn) [Compound 1-40] | 0
O=C(Cc1c[nH]c2ccccc12)Nc1ccc2c(c1)CCC(C(=O)NO)O2 (stereo not drawn) [Compound 1-41] | 0
O=C(Nc1cccc2c1OC(C(=O)NO)CC2)OCc1ccc(C(F)(F)F)cc1 (stereo not drawn) [Compound 1-42] | 0
O=C(NCc1cccc(S(F)(F)(F)(F)F)c1)Nc1ccc2c(c1)CCC(C(=O)NO)O2 (stereo not drawn) [Compound 1-43] | 0
Cc1ccc(COc2ccc3c(c2)OC(C(=O)NO)CC3)cc1 (stereo not drawn) [Compound 1-44] | 0
O=C(COc1ccc(Cl)c(Cl)c1)Nc1cccc2c1OC(C(=O)NO)CC2 (stereo not drawn) [Compound 1-45] | 0
O=C(Nc1ccc(F)cc1)Nc1ccc2c(c1)CCC(C(=O)NO)O2 (stereo not drawn) [Compound 1-46] | 0
COc1ccccc1COc1ccc2c(c1)OC(C(=O)NO)CC2 (stereo not drawn) [Compound 1-47] | 0
O=C(NO)C1CCc2ccc(OCc3ccc(F)cc3)cc2O1 (stereo not drawn) [Compound 1-48] | 0

The compounds below were run against T1, HDAC 6 (Homo sapiens, UniProt Q9UBN7) (assay: HDAC 6 activity at fixed concentration (Table 2)). Settings: compound at 50 nM.
T1 sequence (Q9UBN7 1-1215): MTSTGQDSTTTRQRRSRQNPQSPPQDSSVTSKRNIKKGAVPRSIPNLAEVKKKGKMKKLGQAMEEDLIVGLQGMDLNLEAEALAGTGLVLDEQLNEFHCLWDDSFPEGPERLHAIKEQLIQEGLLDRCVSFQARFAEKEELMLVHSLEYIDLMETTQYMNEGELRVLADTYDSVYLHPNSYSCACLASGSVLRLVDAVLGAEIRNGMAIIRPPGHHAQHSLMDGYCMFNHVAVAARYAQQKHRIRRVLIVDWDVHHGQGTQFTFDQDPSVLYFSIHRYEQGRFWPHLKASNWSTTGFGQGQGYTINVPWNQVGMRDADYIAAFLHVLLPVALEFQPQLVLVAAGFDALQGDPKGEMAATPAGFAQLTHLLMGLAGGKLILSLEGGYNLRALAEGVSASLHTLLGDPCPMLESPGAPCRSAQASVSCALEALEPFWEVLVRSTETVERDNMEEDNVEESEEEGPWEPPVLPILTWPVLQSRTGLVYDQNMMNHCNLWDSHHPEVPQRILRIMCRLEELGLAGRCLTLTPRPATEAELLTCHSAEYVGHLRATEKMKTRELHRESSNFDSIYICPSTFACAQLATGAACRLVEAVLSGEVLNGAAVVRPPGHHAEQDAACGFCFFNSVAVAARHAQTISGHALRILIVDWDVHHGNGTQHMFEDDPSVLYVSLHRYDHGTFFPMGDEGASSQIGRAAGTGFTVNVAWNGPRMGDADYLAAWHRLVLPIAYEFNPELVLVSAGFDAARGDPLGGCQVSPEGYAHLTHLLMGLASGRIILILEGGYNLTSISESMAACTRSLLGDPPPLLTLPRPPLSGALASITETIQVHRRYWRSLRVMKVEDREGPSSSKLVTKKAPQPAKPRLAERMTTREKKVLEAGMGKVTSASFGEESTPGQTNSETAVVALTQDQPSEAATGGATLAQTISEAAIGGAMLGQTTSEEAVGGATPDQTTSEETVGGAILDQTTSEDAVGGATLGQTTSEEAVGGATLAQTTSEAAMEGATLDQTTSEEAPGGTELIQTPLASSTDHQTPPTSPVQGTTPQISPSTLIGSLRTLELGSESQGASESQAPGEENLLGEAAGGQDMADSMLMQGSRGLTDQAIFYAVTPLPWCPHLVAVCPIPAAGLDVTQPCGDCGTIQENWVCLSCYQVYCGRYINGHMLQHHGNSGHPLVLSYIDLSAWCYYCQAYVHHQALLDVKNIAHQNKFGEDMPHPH
Type: biochemical
Set-up: unit not given here

Structure (SMILES) | HDAC 6 at 50 nM
O=C(NO)C1CCc2cc(Cl)ccc2O1 (stereo not drawn) [Compound 1-1] | 33
O=C(NO)C1CCc2cccc(NS(=O)(=O)c3ccc(F)cc3)c2O1 (stereo not drawn) [Compound 1-2] | 5
O=C(NO)[C@@H]1CCc2ccccc2O1 [Compound 1-3] | 46
O=C(NO)[C@H]1CCc2ccccc2O1 [Compound 1-4] | 47
COc1ccc(C(=O)Nc2ccc3c(c2)CCC(C(=O)NO)O3)cc1 (stereo not drawn) [Compound 1-5] | 29
O=C(Nc1ccc2c(c1)CCC(C(=O)NO)O2)c1ccc(S(F)(F)(F)(F)F)cc1 (stereo not drawn) [Compound 1-6] | 41
O=C(NO)C1CCc2cc(CCCOc3ccc(F)cc3)ccc2O1 (stereo not drawn) [Compound 1-7] | 35
O=C(Nc1cccc2c1OC(C(=O)NO)CC2)OCc1ccccc1 (stereo not drawn) [Compound 1-8] | 0
O=C(Nc1ccc2c(c1)CCC(C(=O)NO)O2)OCc1ccccc1 (stereo not drawn) [Compound 1-9] | 50
O=C(NO)C1CCc2cc(C#CCOc3ccc(F)cc3)ccc2O1 (stereo not drawn) [Compound 1-10] | 42
C#Cc1ccc2c(c1)CCC(C(=O)NO)O2 (stereo not drawn) [Compound 1-11] | 25
O=C(NCc1ccccc1)Nc1cccc2c1OC(C(=O)NO)CC2 (stereo not drawn) [Compound 1-12] | 28
O=C(Nc1cccc2c1OC(C(=O)NO)CC2)OCc1ccccc1Cl (stereo not drawn) [Compound 1-13] | 23
O=C(NO)C1CCc2cc(NS(=O)(=O)c3cc(Cl)cc(Cl)c3)ccc2O1 (stereo not drawn) [Compound 1-14] | 0
O=C(NCc1ccc(Cl)c(C(F)(F)F)c1)Nc1ccc2c(c1)CCC(C(=O)NO)O2 (stereo not drawn) [Compound 1-15] | 26
O=C(NO)C1CCc2cc(CCCOC(=O)N3CCc4ccccc4C3)ccc2O1 (stereo not drawn) [Compound 1-16] | 73
O=C(NO)C1CCc2ccc(O)cc2O1 (stereo not drawn) [Compound 1-17] | 40
O=C(NO)C1CCc2cc(-c3ccc(F)cc3)ccc2O1 (stereo not drawn) [Compound 1-18] | 68
O=C(NO)C1CCc2cc(C#CCCC(=O)N3CCc4ccccc4C3)ccc2O1 (stereo not drawn) [Compound 1-19] | 27
O=C(NO)C1CCc2ccc(OCc3ccc(C(F)(F)F)cc3)cc2O1 (stereo not drawn) [Compound 1-20] | 32
O=C(NO)C1CCc2cc(-c3ccc(Cl)c(Cl)c3)ccc2O1 (stereo not drawn) [Compound 1-21] | 73
C[C@@H]1Cc2ccccc2O[C@@H]1C(=O)NO [Compound 1-22] | 0
O=C(NO)C1CCc2cc(-c3ccc(-c4ccccc4)cc3)ccc2O1 (stereo not drawn) [Compound 1-23] | 50
O=C(NO)C1CCc2ccc(OCc3ccccn3)cc2O1 (stereo not drawn) [Compound 1-24] | 23

Structure (SMILES) | HDAC 6 at 50 nM
O=C(NO)C1CCc2ccc(OCCOc3ccc(F)cc3)cc2O1 (stereo not drawn) [Compound 1-25] | 0
O=C(Nc1ccc2c(c1)CC[C@@H](C(=O)NO)O2)c1cc(Cl)cc(Cl)c1 [Compound 1-26] | 20
CN1CC(C(=O)NO)Oc2ccccc21 (stereo not drawn) [Compound 1-27] | 31
Cn1ccc2cc(-c3ccc4c(c3)CCC(C(=O)NO)O4)ccc21 (stereo not drawn) [Compound 1-28] | 44
CO[C@@H]1C[C@@H](C(=O)NO)Oc2ccccc21 [Compound 1-29] | 37
CC(C)COC(=O)Nc1cccc2c1OC(C(=O)NO)CC2 (stereo not drawn) [Compound 1-30] | 29
O=C(NO)C1CCc2cccc(NS(=O)(=O)CC(F)(F)F)c2O1 (stereo not drawn) [Compound 1-31] | 41
COc1ccc(COC(=O)Nc2ccc3c(c2)CCC(C(=O)NO)O3)cc1 (stereo not drawn) [Compound 1-32] | 70
O=C(Nc1ccc2c(c1)CCC(C(=O)NO)O2)OCc1ccccc1Cl (stereo not drawn) [Compound 1-33] | 32
O=C(Nc1cccc2c1O[C@@H](C(=O)NO)CC2)OCc1ccccc1Cl [Compound 1-34] | 13
O=C(NO)C1CCc2cccc(NS(=O)(=O)c3cccc4ccccc34)c2O1 (stereo not drawn) [Compound 1-35] | 0
O=C(NCCc1c[nH]c2ccccc12)Nc1cccc2c1OC(C(=O)NO)CC2 (stereo not drawn) [Compound 1-36] | 6
CS(=O)(=O)Nc1cccc2c1OC(C(=O)NO)CC2 (stereo not drawn) [Compound 1-37] | 2
Cc1ccc(S(=O)(=O)Nc2cccc3c2OC(C(=O)NO)CC3)cc1 (stereo not drawn) [Compound 1-38] | 21
O=C(NCc1cccc(S(F)(F)(F)(F)F)c1)Nc1cccc2c1OC(C(=O)NO)CC2 (stereo not drawn) [Compound 1-39] | 34
O=C(Nc1ccc(F)cc1)Nc1cccc2c1OC(C(=O)NO)CC2 (stereo not drawn) [Compound 1-40] | 30
O=C(Cc1c[nH]c2ccccc12)Nc1ccc2c(c1)CCC(C(=O)NO)O2 (stereo not drawn) [Compound 1-41] | 55
O=C(Nc1cccc2c1OC(C(=O)NO)CC2)OCc1ccc(C(F)(F)F)cc1 (stereo not drawn) [Compound 1-42] | 14
O=C(NCc1cccc(S(F)(F)(F)(F)F)c1)Nc1ccc2c(c1)CCC(C(=O)NO)O2 (stereo not drawn) [Compound 1-43] | 34
Cc1ccc(COc2ccc3c(c2)OC(C(=O)NO)CC3)cc1 (stereo not drawn) [Compound 1-44] | 29
O=C(COc1ccc(Cl)c(Cl)c1)Nc1cccc2c1OC(C(=O)NO)CC2 (stereo not drawn) [Compound 1-45] | 0
O=C(Nc1ccc(F)cc1)Nc1ccc2c(c1)CCC(C(=O)NO)O2 (stereo not drawn) [Compound 1-46] | 48
COc1ccccc1COc1ccc2c(c1)OC(C(=O)NO)CC2 (stereo not drawn) [Compound 1-47] | 53
O=C(NO)C1CCc2ccc(OCc3ccc(F)cc3)cc2O1 (stereo not drawn) [Compound 1-48] | 0
